Assay [1] relates to Leishmania tarentolae promastigotes (LtP). The assay can be described thus: Resazurin viability assay in Leishmania tarentolae promastigotes. It counts as cell-based. How it is done:
Leishmania tarentolae promastigotes (LtP) strain P10 from Jena Bioscience (Jena, Germany) were cultivated in brain heart infusion (BHI) medium (37 g/L) that was supplemented with 5 mg/L hemin, 25,000 U/L penicillin and 25 mg/L streptomycin at 26 °C. LtP were always used one day after being passaged, when the cells were in the logarithmic growth phase. The cell count was determined by measuring the optical density (OD) at a wavelength of 600 nm using a U1100 photometer (Hitachi, Tokyo, Japan). The number of the cells was subsequently calculated according to a calibration curve.
LtP (2 × 10^6 cells/mL) in a mixture of YEM and PBS (1:1, v/v) containing 25,000 U/L penicillin, 25 mg/L streptomycin, and 6 µM hemin (YEM/PBS) were prepared. Aliquots of 200 µL of this suspension were distributed in 96-well plates. Control rows containing YEM/PBS (no activity) and with untreated LtP (100% activity) were also loaded on the plate. To the wells of third rows, compounds (leading to a final vehicle concentration of max. 2% dimethyl sulfoxide (DMSO) in the wells) were added. Subsequently, five 1:5 serial dilution steps were performed. The plates were incubated at 26 °C for 48 h. Following the incubation, 50 µL of a resazurin solution in PBS were added to each well, giving a final concentration of 20 µM. After 4 h of incubation, the fluorescence was measured at 560 nm excitation and 590 nm emission using a plate reader (Perkin Elmer Enspire, Germany). The resazurin assays with J774 cells were performed in analogy to the LtP resazurin assays. Aliquots of a J774 cell suspension in DMEM supplemented with 25,000 U/L penicillin, 25 mg/L streptomycin, and 10% FCS (heat-inactivated), giving a final cell concentration of 10^5 cells/mL, were distributed in the wells of the 96-well microplates. The cells were incubated for 24 h (37 °C, 5% CO2) to allow attachment. Then the medium was discarded and non-adherent cells were removed with 200 µL PBS per well. After the addition of DMEM, the compounds were added, and a serial dilution was performed. Control rows with DMEM (no activity) and with untreated J774 cells (100% activity) were also included. The plates were incubated again for 24 h at 37 °C and 5% CO2. Then the addition of resazurin and the measurement of fluorescence were carried out in analogy to the viability assays performed in LtP.
Calculations were carried out using Microsoft Excel (Microsoft). The graphs were created using Origin 6.1 (OriginLab Corporation, Northampton, MA, USA). The half maximal inhibitory concentrations (IC50) were determined from non-linear concentration–response curves using a four-parameter logistic model and expressed as the mean ± standard deviation (SD). Statistically significant differences of p <0.05 were identified using Students t-test.
(Alamar Blue is a resazurin reagent that responds to reducing activity.)

The next assay deals with LtP. The assay can be described thus: O2 consumption of LtP (OxoPlates). It counts as cell-based, Leishmania tarentolae. The note with it: 140 × 10^6 LtP/mL, 40 min; for influence on LtP respiration (oxygen consumption rate): 6.25–200 µM. How it is done: Oxygen consumption rates of LtP treated with AcEPs were measured using round-bottomed OxoPlates (OP96U, Precision Sensing GmbH, Regensburg, Germany). An aliquot of BHI culture medium was transferred to an open Erlenmeyer flask and was stirred on a magnetic stirrer for 30 min at 25 °C to saturate it with air (aBHI). Another aliquot of BHI culture medium was mixed with approximately 50 mg of the reducing agent sodium dithionite in a tightly closed falcon tube to remove the dissolved oxygen (dBHI). Aliquots of 200 µL of both calibration media were distributed to 6 wells each of the first row of an OxoPlate. To prevent oxygen exchange with the environment, 70 µL of paraffin oil were layered on top of each well containing liquid. The plate was then incubated in the dark for 15 min at 25 °C for equilibration. Then the fluorescence of both calibration media was measured at a microplate reader (Perkin Elmer Enspire, Germany) in a dual kinetic mode using an excitation wavelength of 540 nm for both of the dyes, emission wavelengths of 650 nm for the indicator dye, and 590 nm for the reference dye. The ratio of both intensities (IR) was calculated for each well and averaged giving the two calibration constants k0 or k100. From the second row on, each well was filled with 50 µL of aBHI. The third row was provided with extra 50 µL of aBHI. The respective amounts of the anthracene derivatives (Ac, AQ, AcEP1117, AcEP1118, AcEP1129, AcEP1130) were added and mixed properly. A serial dilution was performed by transferring 50 µL of the mixture in five subsequent 1:2 steps. LtP (140 × 10^6 cells/mL) were suspended in aBHI and aliquots of 150 µL were transferred to each well giving a maximal final concentration of the AcEPs of 200 µM, declining with onward 1:2 dilution steps. On top of each well, 70 µL of paraffin oil was added. The fluorescence intensity of each well was determined in 5 min intervals over 40 min. Each concentration was measured in quadruplicates. The oxygen concentration was calculated using the following equation (PreSens–Precision Sensing GmbH):O2 [µM] = 100 × (k0/IR − 1) / (k0/k100 − 1) × 2.83
The slope of the change of the oxygen concentrations over time was calculated giving the oxygen consumption rate [µM/min] for each well. The value obtained for aBHI was subtracted to eliminate the influence of the medium. The rate was finally normalized to the oxygen consumption rate of the wells that did contain cells but no test compounds.

Assay [2] in a line: Xylenol orange assay: reaction of endoperoxides with Fe2+. The note with it: 50 µM compound, 250 µM FeSO4, 125 µM xylenol orange, methanol/H2O (9:1 v/v). The method, then:
Xylenol orange (XO) (125 µM) and butylated hydroxytoluene (4 mM) were dissolved in methanol/H2O (9:1, v/v). FeSO4 (25 mM) in 2.5 M H2SO4 was prepared immediately before use and added, giving a final concentration of 250 µM FeSO4 in the samples. An aliquot of 100 µL EP solution (final concentration of 50 µM) was transferred into a disposable 1.5 mL cuvette (BRAND, Wertheim, Germany), and 1 mL of the color reagent was added. […] At these time points, the OD difference of the sample at 560 nm and 650 nm was determined using a MS1501 UV-vis diode array spectrophotometer (Shimadzu, Japan). As reference, a mixture of methanol/H2O (9:1, v/v) was used. […] The slope of the reaction rate was calculated using an extinction coefficient of the complex of 1.5 × 10^4 M^−1 cm^−1.

Where [3] appears, read: Leishmania tarentolae, 48 h, resazurin assay, endpoint at 48 h, 2 × 10^6 LtP/mL, read-out: IC50 (µM) Mean ± SD LtP.

Read-outs that look alike come from different tables or passages of the source.

In the case of `O=C1c2ccccc2C(=O)c2ccccc21` [AQ, anthraquinone, reference compound], the IC50 in assay [1] (setting [3]) worked out at 103 ± 17.8 µM. For the same compound, the “influence on LtP respiration (oxygen consumption rate)” value (shortened to “influence on LtP respiration”) in the assay on LtP is recorded as “no considerable influence on the LtP respiration up to concentrations of 200 µM”.

For the compound `c1ccc2cc3ccccc3cc2c1` [Ac, anthracene], the IC50 in assay [1] (Leishmania tarentolae, 48 h, read-out: IC50 (µM) Mean ± SD LtP, resazurin assay, endpoint at 48 h, 2 × 10^6 LtP/mL) was above 400 µM. Also, in the assay on LtP, the “influence on LtP respiration” value is recorded as “no considerable influence on the LtP respiration up to concentrations of 200 µM”.

For the compound `c1ccc2c(c1)C1OOC2c2ccccc21` [AcEP1117, 9,10-dihydro-9,10-epidioxidoanthracene], the IC50 in assay [1] (setting [3]) was determined as 5.72 ± 1.92 µM. For the same compound, the “Slope (nM·min^−1) Mean ± SD of XO/Fe^3+ complex formation” value (“Slope (nM·min^−1) Mean ± SD” for short) in assay [2] is 77 ± 18 nM/min. In addition, the “influence on LtP respiration” value in the assay with LtP is listed as “no considerable influence on the LtP respiration up to concentrations of 200 µM”.

As to `CC12OOC(C)(c3ccccc31)c1ccccc12` [AcEP1118, 9,10-dimethyl-9,10-dihydro-9,10-epidioxidoanthracene], in assay [1] (setting [3]), the IC50 was 1 ± 0.73 µM. In addition, the “Slope (nM·min^−1) Mean ± SD” value in assay [2] came to 2940 ± 11 nM/min. Also, the “influence on LtP respiration” value in the assay on LtP was “no considerable influence on the LtP respiration up to concentrations of 200 µM”.

As for `CC12OOC(c3ccccc31)c1ccccc12` [AcEP1129, 9-methyl-9,10-dihydro-9,10-epidioxidoanthracene], the IC50 in assay [1] (setting [3]) amounted to 0.61 ± 0.21 µM. Moreover, the “Slope (nM·min^−1) Mean ± SD” value in assay [2] is 200,213 ± 60,600 nM·min^−1. Besides, the “influence on LtP respiration” value in the assay with LtP was “significant decline in the oxygen consumption rate at higher concentrations”. Also, in the assay on LtP (p < 0.05 vs 0 µM), the “concentration from which oxygen consumption is significantly decreased” value is reported as 25 µM.

Regarding `CCc1ccc2c(c1)C1OOC2c2ccccc21` (stereo not shown) [AcEP1130, 2-ethyl-9,10-dihydro-9,10-epidioxidoanthracene], the IC50 in assay [1] (setting [3]) amounted to 0.22 ± 0.09 µM. Besides, the “Slope (nM·min^−1) Mean ± SD” value in assay [2] stood at 146 ± 27 nM/min. Also, the “influence on LtP respiration” value with LtP is “significant decline in the oxygen consumption rate at higher concentrations”.

With `N=C(N)c1ccc(OCCCCCOc2ccc(C(=N)N)cc2)cc1` [Pen, pentamidine, reference compound], the IC50 in assay [1] (setting [3]) is below 1 µM; in assay [1] (resazurin assay, endpoint at 48 h, 2 × 10^6 LtP/mL, read-out: IC50 (µM) Mean ± SD LtP), 0.84 ± 0.43 µM.

For the origin of these results see publication PMC6100073, “Activation of Anthracene Endoperoxides in Leishmania and Impairment of Mitochondrial Functions” (Molecules : A Journal of Synthetic Chemistry and Natural …, 2018).
